The values that follow come from patent US7528148B2, “Pyrazolo[3,4-B]pyridine compounds, and their use as phosphodiesterase inhibitors” (Glaxo Group Limited, priority 2002, dated 2009).

The target in the assay is T1, PDE4B (human recombinant) (Homo sapiens, UniProt Q07343).
T1 construct: made in house; host or cells: Saccharomyces cerevisiae strain GL62 (PDE-deficient)
T1 sequence (Q07343 1-564 isoform Q07343-2): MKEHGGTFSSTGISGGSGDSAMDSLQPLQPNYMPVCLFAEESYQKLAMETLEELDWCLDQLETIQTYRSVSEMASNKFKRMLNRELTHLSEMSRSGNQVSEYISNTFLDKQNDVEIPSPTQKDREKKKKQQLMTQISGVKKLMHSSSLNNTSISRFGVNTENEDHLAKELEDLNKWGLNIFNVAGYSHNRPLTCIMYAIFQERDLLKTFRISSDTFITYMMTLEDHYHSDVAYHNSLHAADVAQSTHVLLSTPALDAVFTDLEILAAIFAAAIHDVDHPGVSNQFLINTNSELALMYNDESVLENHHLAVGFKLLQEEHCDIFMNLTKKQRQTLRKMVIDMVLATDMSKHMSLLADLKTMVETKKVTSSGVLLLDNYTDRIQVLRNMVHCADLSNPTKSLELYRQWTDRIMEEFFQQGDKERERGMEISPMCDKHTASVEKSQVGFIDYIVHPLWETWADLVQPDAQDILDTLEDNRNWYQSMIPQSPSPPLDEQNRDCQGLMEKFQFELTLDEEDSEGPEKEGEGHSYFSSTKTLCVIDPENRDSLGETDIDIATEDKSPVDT
Description: PDE4B inhibition, radioactive SPA or IMAP fluorescence polarisation (FP) assay. The conditions noted are these: one reading or average of ca. 2-6 readings, accurate only to about ±0.5 log unit, read-out: PDE4B pIC50 (±about 0.5) (converted). It counts as biochemical. From the text: Human recombinant PDE4B, in particular the 2B splice variant thereof (HSPDE4B2B), is disclosed in WO 94/20079 and also M. M. McLaughlin et al., “A low Km, rolipram-sensitive, cAMP-specific phosphodiesterase from human brain: cloning and expression of cDNA, biochemical characterisation of recombinant protein, and tissue distribution of mRNA”, J. Biol. Chem., 1993, 268, 6470-6476. Human recombinant PDE4B was expressed in the PDE-deficient yeast Saccharomyces cerevisiae strain GL62. 100,000×g supernatant fractions of yeast cell lysates were used for PDE4B assays and inhibitor studies.
The ability of compounds to inhibit catalytic activity at PDE4B or 4D (human recombinant), PDE3 (from bovine aorta) or PDE5 (human recombinant) or PDE6 (from bovine retina) was determined by Scintillation Proximity Assay (SPA) in 96-well format. Test compounds (preferably as a solution in DMSO, e.g. about 2 microlitre (ul) volume of DMSO solution) were preincubated at ambient temperature (room temperature, e.g. 19-23° C.) in Wallac Isoplates (code 1450-514) with PDE enzyme in 50 mM Tris-HCl buffer pH 7.5, 8.3 mM MgCl2, 1.7 mM EGTA, 0.05% (w/v) bovine serum albumin for 10-30 minutes (usually 30 minutes). The enzyme concentration was adjusted so that no more than 20% hydrolysis of the substrate defined below occurred in control wells without compound, during the incubation. For PDE3, PDE4B and PDE4D assays, [5′,8-^3H]Adenosine 3′,5′-cyclic phosphate (Amersham Pharmacia Biotech, code TRK.559; or Amersham Biosciences UK Ltd, Pollards Wood, Chalfont St Giles, Buckinghamshire HP8 4SP, UK) was added to give 0.05 uCi per well and ˜10 nM final concentration. For the PDE5 and PDE6 assay [8-^3H]Guanosine 3′,5′-cyclic phosphate (Amersham Pharmacia Biotech, code TRK.392) was added to give 0.05 uCi per well and ˜36 nM final concentration. Plates, preferably containing approx. 100 ul volume of assay mixture, were mixed on an orbital shaker for 5 minutes and incubated at ambient temperature for 1 hour. Phosphodiesterase SPA beads (Amersham Pharmacia Biotech, code RPNQ 0150) were added (˜1 mg per well) to terminate the assay. Plates were sealed and shaken and allowed to stand at ambient temperature for 35 minutes to 1 hour (preferably 35 minutes) to allow the beads to settle. Bound radioactive product was measured using a WALLAC TRILUX 1450 Microbeta scintillation counter. For inhibition curves, 10 concentrations ([…]) of each compound were assayed. Curves were analysed using ActivityBase and XLfit (ID Businesss Solutions Limited, 2 Ocean Court, Surrey Research Park, Guildford, Surrey GU2 7QB, United Kindgom) Results were expressed as pIC50 values.
The ability of compounds to inhibit catalytic activity at PDE4B (human recombinant) or PDE4D (human recombinant) was determined by IMAP Fluorescence Polarisation (FP) assay (IAP Explorer kit, available from Molecular Devices Corporation, Sunnydale, Calif., USA; Molecular Devices code: R8062) in 384-well format. The IMAP FP assay is able to measure PDE activity in an homogenous, non-radioactive assay format. The FP assay uses the ability of immobilised trivalent metal cations, coated onto nanoparticles (tiny beads), to bind the phosphate group of Fl-AMP that is produced on the hydrolysis of fluorescein-labelled (Fl) cyclic adenosine mono-phosphate (Fl-cAMP) to the non-cyclic Fl-AMP form. […] Binding of Fl-AMP product to the beads (coated with the immobilised trivalent cations) slows the rotation of the bound Fl-AMP and leads to an increase in the fluorescence polarisation ratio of parallel to perpendicular light. Inhibition of the PDE reduces/inhibits this signal increase. […]
As for `CCn1ncc2c(NC3CCCC3)c(-c3nnc(CS(C)(=O)=O)o3)cnc21` [Example 2, N-Cyclopentyl-1-ethyl-5-{5-[(methylsulfonyl)methyl]-1,3,4-oxadiazol-2-yl}-1H-pyrazolo[3,4-b]pyridin-4-amine], the IC50 was 0.794 to 31.6 nM.

For `CCn1ncc2c(NC3CCCC3)c(-c3nnc(C(C)C)s3)cnc21` [Example 6, N-Cyclopentyl-1-ethyl-5-(5-isopropyl-1,3,4-thiadiazol-2-yl)-1H-pyrazolo[3,4-b]pyridin-4-amine], the IC50 is 7.94 nM. For `CCn1ncc2c(Nc3ccc(F)cc3)c(-c3nc(C)no3)cnc21` [Example 7, 1-Ethyl-N-(4-fluorophenyl)-5-(3-methyl-1,2,4-oxadiazol-5-yl)-1H-pyrazolo[3,4-b]pyridin-4-amine], the IC50 was 63.1 to 251 nM. Then `CCn1ncc2c(NC3CCCCC3)c(-c3nnc(C(C)C)o3)cnc21` [Example 10, N-Cyclohexyl-1-ethyl-5-(5-isopropyl-1,3,4-oxadiazol-2-yl)-1H-pyrazolo[3,4-b]pyridin-4-amine], with 6.31 nM; and `CCn1ncc2c(NCC(C)C)c(-c3nnc(C)o3)cnc21` [Example 12, 1-Ethyl-N-isobutyl-5-(5-methyl-1,3,4-oxadiazol-2-yl)-1H-pyrazolo[3,4-b]pyridin-4-amine], with 12.6 nM; and `CCn1ncc2c(NC3CCCCC3)c(-c3nnc(CS(C)(=O)=O)o3)cnc21` [Example 24, N-Cyclohexyl-1-ethyl-5-{5-[(methylsulfonyl)methyl]-1,3,4-oxadiazol-2-yl}-1H-pyrazolo[3,4-b]pyridin-4-amine], with 6.31 nM. For the molecule `CCn1ncc2c(N[C@@H](C)C(C)C)c(-c3nnc(CS(C)(=O)=O)o3)cnc21` [Example 26, N-[(1S)-1,2-dimethylpropyl]-1-ethyl-5-{5-[(methylsulfonyl)methyl]-1,3,4-oxadiazol-2-yl}-1H-pyrazolo[3,4-b]pyridin-4-amine], the IC50 is 0.794 to 31.6 nM. For the molecule `CCn1ncc2c(NC3CCOCC3)c(-c3nnc(C4(C)COC4)o3)cnc21` [Example 34, 1-Ethyl-5-[5-(3-methyloxetan-3-yl)-1,3,4-oxadiazol-2-yl]-N-(tetrahydro-2H-pyran-4-yl)-1H-pyrazolo[3,4-b]pyridin-4-amine], the IC50 was 0.794 to 31.6 nM. With `CCn1ncc2c(NC3CCOCC3)c(-c3nnc(CN4CCOCC4)o3)cnc21` [Example 39, 1-Ethyl-5-[5-(morpholin-4-ylmethyl)-1,3,4-oxadiazol-2-yl]-N-(tetrahydro-2H-pyran-4-yl)-1H-pyrazolo[3,4-b]pyridin-4-amine] the figure was 0.794 to 31.6 nM; with `CCn1ncc2c(NC3CCOCC3)c(C3=NC(C)CO3)cnc21` (stereo not shown) [Example 42, 1-Ethyl-5-(4-methyl-4,5-dihydro-1,3-oxazol-2-yl)-N-(tetrahydro-2H-pyran-4-yl)-1H-pyrazolo[3,4-b]pyridin-4-amine], 5.01 nM. With `CCCn1ncc2c(NC3CCOCC3)c(-c3nnc(C)o3)cnc21` [Example 43, 1-n-Propyl-5-(5-methyl-1,3,4-oxadiazol-2-yl)-N-(tetrahydro-2H-pyran-4-yl)-1H-pyrazolo[3,4-b]pyridin-4-amine] the figure was 63.1 to 251 nM; with `CCn1ncc2c(NC3CCOCC3)c(-c3nnc(C4CCCO4)o3)cnc21` (stereo not shown) [Example 44, 1-Ethyl-5-[5-(tetrahydrofuran-2-yl)-1,3,4-oxadiazol-2-yl]-N-(tetrahydro-2H-pyran-4-yl)-1H-pyrazolo[3,4-b]pyridin-4-amine], 0.794 to 31.6 nM. Regarding `CCn1ncc2c(NC3CCN(C(C)=O)CC3)c(-c3nc(CN4CCOCC4)no3)cnc21` [Example 48, N-(1-Acetylpiperidin-4-yl)-1-ethyl-5-[3-(morpholin-4-ylmethyl)-1,2,4-oxadiazol-5-yl]-1H-pyrazolo[3,4-b]pyridin-4-amine], the IC50 was 63.1 to 251 nM. With `CCn1ncc2c(NC3CCOCC3)c(C3=N[C@@H](c4ccccc4)CO3)cnc21` [Example 50, 1-Ethyl-5-[(4S)-4-phenyl-4,5-dihydro-1,3-oxazol-2-yl]-N-(tetrahydro-2H-pyran-4-yl)-1H-pyrazolo[3,4-b]pyridin-4-amine] the figure was 0.794 to 31.6 nM. Consider `CCn1ncc2c(NC3CCOCC3)c(-c3nc(C(=O)N4CCOCC4)co3)cnc21` [Example 59, 1-Ethyl-5-[4-(4-morpholinylcarbonyl)-1,3-oxazol-2-yl]-N-(tetrahydro-2H-pyran-4-yl)-1H-pyrazolo[3,4-b]pyridin-4-amine], for which the IC50 is 0.794 to 31.6 nM. As to `CCn1ncc2c(N(C)C3CCOCC3)c(-c3nnc(C)o3)cnc21` [Example 60, 1-Ethyl-N-methyl-5-(5-methyl-1,3,4-oxadiazol-2-yl)-N-(tetrahydro-2H-pyran-4-yl)-1H-pyrazolo[3,4-b]pyridin-4-amine], the IC50 was 63.1 to 251 nM. On to `CCn1ncc2c(N[C@H]3CC[C@H](O)CC3)c(-c3nnc(C)o3)cnc21` [Example 61, trans-4-{[1-Ethyl-5-(5-methyl-1,3,4-oxadiazol-2-yl)-1H-pyrazolo[3,4-b]pyridin-4-yl]amino}cyclohexanol], for which the IC50 was 63.1 to 251 nM. With `CCn1ncc2c(NC3CCCOC3)c(-c3nnc(C)o3)cnc21` (stereo not shown) [Example 62, 1-Ethyl-5-(5-methyl-1,3,4-oxadiazol-2-yl)-N-(tetrahydro-2H-pyran-3-yl)-1H-pyrazolo[3,4-b]pyridin-4-amine] the figure was 0.794 to 31.6 nM; with `CCn1ncc2c(NC3CCC(=O)CC3)c(-c3nnc(C)o3)cnc21` [Example 63, 4-{[1-Ethyl-5-(5-methyl-1,3,4-oxadiazol-2-yl)-1H-pyrazolo[3,4-b]pyridin-4-yl]amino}cyclohexanone], 0.794 to 31.6 nM. Consider `CCCN(c1c(-c2nnc(C)o2)cnc2c1cnn2CC)C1CCOCC1` [Example 64, 1-Ethyl-5-(5-methyl-1,3,4-oxadiazol-2-yl)-N-n-propyl-N-(tetrahydro-2H-pyran-4-yl)-1H-pyrazolo[3,4-b]pyridin-4-amine], for which the IC50 was 63.1 to 251 nM.

On to `CCn1ncc2c(NC3CCOCC3)c(-c3nnc(C4CCOCC4)o3)c(C)nc21` [Example 66, 1-Ethyl-6-methyl-N-(tetrahydro-2H-pyran-4-yl)-5-[5-(tetrahydro-2H-pyran-4-yl)-1,3,4-oxadiazol-2-yl]-1H-pyrazolo[3,4-b]pyridin-4-amine], for which the IC50 is 0.794 to 31.6 nM. Then `CCn1ncc2c(NC3CCOCC3)c(-c3nnc(Cc4nonc4C)o3)cnc21` [Example 71, 1-Ethyl-5-{5-[(4-methyl-1,2,5-oxadiazol-3-yl)methyl]-1,3,4-oxadiazol-2-yl}-N-(tetrahydro-2H-pyran-4-yl)-1H-pyrazolo[3,4-b]pyridin-4-amine], with 0.794 to 31.6 nM; and `CCn1ncc2c(NC3CCOCC3)c(-c3nnc(CN(C)C(C)=O)o3)cnc21` [Example 76, N-({5-[1-Ethyl-4-(tetrahydro-2H-pyran-4-ylamino)-1H-pyrazolo[3,4-b]pyridin-5-yl]-1,3,4-oxadiazol-2-yl}methyl)-N-methylacetamide], with 0.794 to 31.6 nM. With `CCn1ncc2c(NC3CCOCC3)c(-c3nnc(CC4CCOCC4)o3)cnc21` [Example 77, 1-Ethyl-N-(tetrahydro-2H-pyran-4-yl)-5-[5-(tetrahydro-2H-pyran-4-ylmethyl)-1,3,4-oxadiazol-2-yl]-1H-pyrazolo[3,4-b]pyridin-4-amine], the IC50 was 0.794 to 31.6 nM.

As for `CCn1ncc2c(NC3CCOCC3)c(-c3nc(CC(=O)N4CCCC4)no3)cnc21` [Example 84, 1-Ethyl-5-{3-[2-oxo-2-(1-pyrrolidinyl)ethyl]-1,2,4-oxadiazol-5-yl}-N-(tetrahydro-2H-pyran-4-yl)-1H-pyrazolo[3,4-b]pyridin-4-amine], the IC50 is 0.794 to 31.6 nM.
